Test results published in US4855426A, “Process of preparing 1,5-epoxy-2,3,4,5-tetrahydro-1H-3-benzazepins” (Ortho Pharmaceutical Corporation, priority 1988, dated 1989).
Where a name gives a salt, the structure may show the parent alone. Read-outs that look alike come from different tables or passages of the source.

Experiments:
parietal cells = test: Isolated Parietal Cell Assay, 14C-aminopyrine accumulation in histamine stimulated parietal cells; assay type: cell-based, rabbit; details: Oryctolagus cuniculus, 20 min, read-out: IC50, inhibition of 14C-AP accumulation in the histamine stimulated parietal cell
Experimental: The isolated parietal cell assay was conducted using the procedures of Batzri, S., et al., Biochemica et Biophysica Acta 508, 328 (1978) and Soll, A. H., Am. J. Physiol. 238, G366 (1980). Basically, parietal cells were isolated from the fundic mucosa of rabbit stomachs by a four-stage collagenase digestion process. The supernatant fraction from the last two stages of this process contain the individual parietal cells. This cell suspension was centrifuged and reconstituted in a modified Hank's buffer to contain 2-3×10^6 cells/ml. […] The accumulation was stimulated by histamine and was blocked by H2 antagonists. The cells were incubated with 0.5×10^6 cpm ^14 C-AP, with various concentrations of histamine, 1×10^-5 M isobutylmethylxanthine, and the test compound added in a 20 μl volume of buffer or DMSO. The flasks were incubated in a shaking water bath at 37° C. for 20 minutes. Two aliquots were then taken from each flask and cell pellets were collected by centrifugation. The pellets were solubilized with Protosol (New England Nuclear) and radioactivity determined by liquid scintillation spectrometry. Data is presented as the IC50, the concentration of compound required to inhibit ^14 C-AP accumulation in the histamine stimulated parietal cell by 50%.

Lesions = test: Cytoprotection, ethanol (necrotizing agent) induced lesions in rats; assay type: in vivo, male Charles River Sprague Dawley derived rats; details: oral, 50% EtOH one hour later
Experimental: The cytoprotective activity of the compounds was tested using a modification of the method of Robert, A., et al., Gastroenterology 77, 433 (1979). Basically, male Charles River Sprague Dawley derived rats weighing between 140 and 220 g were fasted overnight, but allowed water ad libitum. They were deprived of water during the experiment, however. The rats were weighed and pretreated orally with the test compound in a dose volume of 1 ml/kg. One hour later, the necrotizing agent was administered orally, usually 50% EtOH, in a dose volume of 1 ml/animal. After an additional hour, the rats were sacrificed with CO2, the stomachs removed, inflated with distilled water, opened along the greater curvature and laid out on a flat surface. The presence of mucosal bleeding and incidence of lesions were noted, and after wiping off the mucosa the presence of submucosal bleeding and incidence of lesions were also noted.

Gastric Secretion = test: Gastric Secretion, betazole stimulated, dogs with total gastric fistulas; assay type: in vivo, Female dogs; details: gastric fistula dogs
Source text: This is a secondary test used to follow-up compounds which have shown gastric antisecretory activity in the four-hour pylorus ligated rat (Example 42). Female dogs were surgically prepared with total gastric fistulas and allowed to recover.

Pepsin = test: In Vivo Pepsin Assay, radioenzymatic, gastric juice of pylorus ligated rat
Experimental: (§1) The inhibitory activity of the compounds on acid output was tested using pylorus ligation in a modification of the procedure of Shay, H., et al., Gastroenterology 26, 906 (1954). Basically, male Charles River Sprague Dawley derived rats weighing 150-300 grams were deprived of food but not water for 18-24 hours prior to use. Water was withheld during the experiment, however. The rats were weighed, anesthetized with ether and the pylorus ligated according to the method of Shay et al., supra. Treatment or vehicle control was then administered intraduodenally (i.d.). Rats were housed two/cage and sacrificed with CO2 four hours after ligation. The stomachs were removed, rinsed, and contents emptied into a graduated centrifuge tube. The tubes were centrifuged, the volume of gastric juice recorded, and any samples obviously contaminated by feces, food or blood were eliminated. A 1 ml aliquot of gastric juice was titrated with 0.1N NaOH to a pH of 7.0-7.4. The volume of gastric juice secreted, the acid concentration, and the product of the volume times the concentration, i.e., the total amount of acid secreted, were measured.
Pepsin activity was measured by a radioenzymatic assay. An aliquot of a 1:1000 dilution of rat gastric juice was incubated with the substrate solution (containing methyl-^14 C-methylated methemoglobin and nonradioactive methemoglobin in 10 mM sodium citrate buffer, pH 3.0) for a period of ten minutes at 37° C. After this time, trichloroacetic acid was added to stop the reaction and to precipitate the unreacted substrate. After removal of the precipitate by centrifugation, an aliquot of the supernatant fraction is quantitated for radioactivity by liquid scintillation spectrometry. Rat gastric juice samples were obtained after drug administration in the pylorus ligated rat (Example 42). Data is presented as the percent inhibition of pepsin activity in drug treated gastric samples compared to enzyme activity observed for control gastric juice samples. […]

acid output = test: Gastric Secretion, inhibition of acid output in pylorus ligated rats; assay type: in vivo, male Charles River Sprague Dawley derived rats; details: Rattus norvegicus, 4 h, intraduodenal, four hours
Experimental: as §1

[1] = rabbit parietal cells, 37° C., 20 minutes, 1×10^-5 M isobutylmethylxanthine

CN(C)Cc1ccc(CSCCN2CC3OC(c4ccccc4)(C2)c2ccccc23)o1 (stereo not shown) [Example 12, 3-[2-[[[5-(Dimethylamino)methyl-2-furanyl]methylthio]ethyl]-1,5-epoxy-1-phenyl-1,2,4,5-tetrahydro-3-benzazepin dioxalate hemihydrate] was tested, and the IC50 (parietal cells; [1]) was 0.25 to 0.37 µM, the “% Inhibition of Lesions, Mucosa” value (Lesions; 10 mg/kg) was 20% and the “% Inhibition of Lesions, Submucosa” value (Lesions; 10 mg/kg) was 11%.

With FC(F)(F)c1cccc(C23CN(CCCOc4cccc(CN5CCCCC5)c4)CC(O2)c2ccccc23)c1 (stereo not shown) [Example 4, 3-[3-[[3-(1-Piperidinyl)methyl]phenoxy]propyl]-1,5-epoxy-1-(3-trifluoromethyl)phenyl-1,2,4,5-tetrahydro-3-benzazepin dioxalate monohydrate] the IC50 (parietal cells; [1]) was 4.5 µM, the “% Inhibition of Gastric Secretion” value (Gastric Secretion; 7.3 mg/kg (iv)) was 85% and the “% Inhibition of Gastric Secretion” value (Gastric Secretion; 20 mg/kg (ig)) was 48%. For the same compound, the “% Inhibition of Pepsin Activity” value (Pepsin; 40 mg/kg) was 52%, the inhibition in vivo at 40 mg/kg (acid output) was 46% and the “% Inhibition of Lesions, Mucosa” value (Lesions; 10 mg/kg) was 70%. For the same compound, the “% Inhibition of Lesions, Submucosa” value (Lesions; 10 mg/kg) was 80%, the “% Inhibition of Lesions, Mucosa” value (Lesions; 20 mg/kg) was 88% and the “% Inhibition of Lesions, Submucosa” value (Lesions; 20 mg/kg) was 100%.

Work on c1ccc(CN2CC3OC(C2)c2ccccc23)cc1 [Example 18, 3-Benzyl-1,5-epoxy-1,2,4,5-tetrahydro-3-benzazepin oxalate] yielded an inhibition in vivo at 50 mg/kg (acid output) of 23%.

C=CCN1CC2OC(C1)c1cc(Cl)ccc12 (stereo not shown) [Example 13, 3-Allyl-7-chloro-1,5-epoxy-1,2,4,5-tetrahydro-3-benzazepin oxalate.1/4H2 O] was tested, and the inhibition in vivo at 50 mg/kg (acid output) was 33%.

Compound c1ccc(C23CNCC(O2)c2ccccc23)cc1 (stereo not shown) [Example 7, 1,5-Epoxy-1-phenyl-1,2,4,5-tetrahydro-3-benzazepin] has an inhibition in vivo at 50 mg/kg (acid output) of 68%.

c1ccc2c(c1)C1CNCC2(C2OCCO2)O1 (stereo not shown) [Example 30, 1-(1,3-Dioxolan-2-yl)-1,5-epoxy-1,2,4,5-tetrahydro-3-benzazepin] was tested, and the inhibition in vivo at 50 mg/kg (acid output) was 23%.

Compound FC(F)(F)c1cccc(C23CN(CCCN4CCOCC4)CC(O2)c2ccccc23)c1 (stereo not shown) [Example 3, 1,5-Epoxy-3-[N-(3-morpholinopropyl)-1-[(3-trifluoromethyl)phenyl]-1,2,4,5-tetrahydro-3-benzazepin dioxalate] has an inhibition in vivo at 25 mg/kg (acid output) of 48%.

In the case of c1ccc(C23CN(CCCOc4cccc(CN5CCCCC5)c4)CC(O2)c2ccccc23)cc1 (stereo not shown) [Example 11, 3-[3-[[3-(1-Piperidinyl)methyl]methyl]phenoxy]propyl]-1,5-epoxy-1-phenyl-1,2,4,5-tetrahydro-3-benzazepin dioxalate hemihydrate], the IC50 (parietal cells; [1]) is reported as 3.5 µM, the “% Inhibition of Pepsin Activity” value (Pepsin; 40 mg/kg) is reported as 30% and the inhibition in vivo at 40 mg/kg (acid output) is reported as 39%. For the same compound, the “% Inhibition of Lesions, Mucosa” value (Lesions; 40 mg/kg) was 80% and the “% Inhibition of Lesions, Submucosa” value (Lesions; 40 mg/kg) was 100%.

For CN(C)Cc1ccc(CSCCN2CC3OC(c4cccc(C(F)(F)F)c4)(C2)c2ccccc23)o1 (stereo not shown) [Example 5, 3-[2-[[[5-(Dimethylamino)methyl-2-furanyl]methylthio]ethyl]-1,5-epoxy-1-[3-trifluoromethyl)phenyl-1,2,4,5-tetrahydro-3-benzazepin dioxalate], the IC50 (parietal cells; [1]) was 1 to 1.3 µM, the “% Inhibition of Pepsin Activity” value (Pepsin; 20 mg/kg) was 28-43% and the inhibition in vivo at 20 mg/kg (acid output) was 46%. The “% Inhibition of Lesions, Mucosa” value (Lesions; 10 mg/kg) was 10% and the “% Inhibition of Lesions, Submucosa” value (Lesions; 10 mg/kg) was 30%.

In the case of FC(F)(F)c1cccc(C23CNCC(O2)c2ccccc23)c1 (stereo not shown) [Example 2, 1,5-Epoxy-1-[(3-trifluoromethyl)phenyl]-1,2,4,5-tetrahydro-3-benzazepin oxalate], the IC50 (parietal cells) is reported as 3.5 µM, the “% Inhibition of Gastric Secretion” value (Gastric Secretion; 2 mg/kg (ig)) is reported as 53% and the “% Inhibition of Gastric Secretion” value (Gastric Secretion; 40 mg/kg (route not given)) is reported as 75%. The inhibition in vivo at 25 mg/kg (acid output) was 71%, the “% Inhibition of Lesions, Mucosa” value (Lesions; 25 mg/kg) was 56% and the “% Inhibition of Lesions, Submucosa” value (Lesions; 25 mg/kg) was 56%.

c1ccc2c(c1)C1CN(CCCN3CCOCC3)CC2O1 [Example 22, 1,5-Epoxy-3-[N-(3-morpholinopropyl)]-1,2,4,5-tetrahydro-3-benzazepin dioxalate] was tested, and the inhibition in vivo at 50 mg/kg (acid output) was 33%.

Work on Clc1ccc2c(c1)C1CNCC2O1 (stereo not shown) [Example 14, 7-Chloro-1,5-epoxy-1,2,4,5-tetrahydro-3-benzazepin oxalate.1/4H2 O] yielded an inhibition in vivo at 50 mg/kg (acid output) of 40%.

COc1cc2c(cc1OC)C1CN(CCSCc3ccc(CN(C)C)o3)CC2O1 [Example 36, 3-[2-[[[5-(Dimethylamino)methyl-2-furanyl]methylthio]ethyl]-1,5-epoxy-7,8-dimethoxy-1,2,4,5-tetrahydro-3-benzazepin dioxalate monohydrate] was tested, and the IC50 (parietal cells; [1]) was 30 µM and the inhibition in vivo at 20 mg/kg (acid output) was 26%.
